Patent US12590067B2, “Herbicidal cyclohexanedione derivatives” (SYNGENTA CROP PROTECTION AG, priority 2019, dated 2026)

What was measured:
Test in all cases: Glasshouse herbicidal test, pre- and post-emergence, percentage damage to the plant
Format in all cases: in vivo
[1] = tested on: Avena fatua (AVEFA); settings: 250 g/h, evaluated after 13 days; for AVEFA POST percentage damage caused to the plant (five-point scale): post-emergence; for AVEFA PRE percentage damage caused to the plant (five-point scale): pre-emergence
Experimental: (§1) Seeds of a variety of test species are sown in standard soil in pots (Lolium perenne (LOLPE), Setaria faberi (SETFA), Alopecurus myosuroides (ALOMY), Echinochloa crus-galli (ECHCG), Avena fatua (AVEFA)). After cultivation for one day (pre-emergence) or after 8 days cultivation (post-emergence) under controlled conditions in a glasshouse (at 24/16° C., day/night; 14 hours light; 65% humidity), the plants are sprayed with an aqueous spray solution derived from the formulation of the technical active ingredient in acetone/water (50:50) solution containing 0.5% Tween 20 (polyoxyethelyene sorbitan monolaurate, CAS RN 9005-64-5). Compounds are applied at 250 g/h. The test plants are then grown in a glasshouse under controlled conditions in a glasshouse (at 24/16° C., day/night; 14 hours light; 65% humidity) and watered twice daily. After 13 days for pre and post-emergence, the test is evaluated for the percentage damage caused to the plant. The biological activities are shown in the following table on a five-point scale (5=80-100%; 4=60-79%; 3=40-59%; 2=20-39%; 1=0-19%).

[2] = tested on: Echinochloa crus-galli (ECHCG); settings: 250 g/h, evaluated after 13 days; for ECHCG POST percentage damage caused to the plant (five-point scale): post-emergence; for ECHCG PRE percentage damage caused to the plant (five-point scale): pre-emergence
Experimental: as §1

[3] = tested on: Setaria faberi (SETFA); settings: 250 g/h, evaluated after 13 days; for SETFA POST percentage damage caused to the plant (five-point scale): post-emergence; for SETFA PRE percentage damage caused to the plant (five-point scale): pre-emergence
Experimental: as §1

[4] = tested on: Lolium perenne (LOLPE); settings: 250 g/h, evaluated after 13 days; for LOLPE POST percentage damage caused to the plant (five-point scale): post-emergence; for LOLPE PRE percentage damage caused to the plant (five-point scale): pre-emergence
Experimental: as §1

[5] = tested on: Alopecurus myosuroides (ALOMY); settings: 250 g/h, evaluated after 13 days; for ALOMY POST percentage damage caused to the plant (five-point scale): post-emergence; for ALOMY PRE percentage damage caused to the plant (five-point scale): pre-emergence
Experimental: as §1

CC#Cc1cc(Cl)c(C2C(=O)CC3(CCN(C(C)=O)CC3)CC2=O)c(Cl)c1 [Compound A14]
AVEFA POST percentage damage caused to the plant (five-point scale) [1]: 5 (5=80-100%)
AVEFA PRE percentage damage caused to the plant (five-point scale) [1]: 5 (5=80-100%)
ECHCG POST percentage damage caused to the plant (five-point scale) [2]: 5 (5=80-100%)
ECHCG PRE percentage damage caused to the plant (five-point scale) [2]: 5 (5=80-100%)
SETFA POST percentage damage caused to the plant (five-point scale) [3]: 5 (5=80-100%)
SETFA PRE percentage damage caused to the plant (five-point scale) [3]: 5 (5=80-100%)
LOLPE POST percentage damage caused to the plant (five-point scale) [4]: 5 (5=80-100%)
LOLPE PRE percentage damage caused to the plant (five-point scale) [4]: 5 (5=80-100%)
ALOMY POST percentage damage caused to the plant (five-point scale) [5]: 5 (5=80-100%)
ALOMY PRE percentage damage caused to the plant (five-point scale) [5]: 5 (5=80-100%)

CC#Cc1cc(Cl)c(C2C(=O)CC3(CCN(C(=O)COC(F)F)CC3)CC2=O)c(Cl)c1 [Compound A18]
AVEFA POST percentage damage caused to the plant (five-point scale) [1]: 5 (5=80-100%)
AVEFA PRE percentage damage caused to the plant (five-point scale) [1]: 5 (5=80-100%)
ECHCG POST percentage damage caused to the plant (five-point scale) [2]: 5 (5=80-100%)
ECHCG PRE percentage damage caused to the plant (five-point scale) [2]: 5 (5=80-100%)
SETFA POST percentage damage caused to the plant (five-point scale) [3]: 5 (5=80-100%)
SETFA PRE percentage damage caused to the plant (five-point scale) [3]: 5 (5=80-100%)
LOLPE POST percentage damage caused to the plant (five-point scale) [4]: 5 (5=80-100%)
LOLPE PRE percentage damage caused to the plant (five-point scale) [4]: 5 (5=80-100%)
ALOMY POST percentage damage caused to the plant (five-point scale) [5]: 5 (5=80-100%)
ALOMY PRE percentage damage caused to the plant (five-point scale) [5]: 5 (5=80-100%)

CC#Cc1cc(Cl)c(C2C(=O)CC3(CCN(C(=O)C(F)F)CC3)CC2=O)c(OC)c1 [Compound A9]
AVEFA POST percentage damage caused to the plant (five-point scale) [1]: 5 (5=80-100%)
AVEFA PRE percentage damage caused to the plant (five-point scale) [1]: 5 (5=80-100%)
ECHCG POST percentage damage caused to the plant (five-point scale) [2]: 5 (5=80-100%)
ECHCG PRE percentage damage caused to the plant (five-point scale) [2]: 5 (5=80-100%)
SETFA POST percentage damage caused to the plant (five-point scale) [3]: 5 (5=80-100%)
SETFA PRE percentage damage caused to the plant (five-point scale) [3]: 5 (5=80-100%)
LOLPE POST percentage damage caused to the plant (five-point scale) [4]: 5 (5=80-100%)
LOLPE PRE percentage damage caused to the plant (five-point scale) [4]: 5 (5=80-100%)
ALOMY POST percentage damage caused to the plant (five-point scale) [5]: 5 (5=80-100%)
ALOMY PRE percentage damage caused to the plant (five-point scale) [5]: 5 (5=80-100%)

CCc1cc(-c2ccc(C#N)cn2)cc(C)c1C1C(=O)CC2(CCN(C(=O)C3CC3)CC2)CC1=O [Compound A51, 6-[4-[3-(cyclopropanecarbonyl)-8,10-dioxo-3-azaspiro[5.5]undecan-9-yl]-3-ethyl-5-methyl-phenyl]pyridine-3-carbonitrile]
AVEFA POST percentage damage caused to the plant (five-point scale) [1]: 5 (5=80-100%)
AVEFA PRE percentage damage caused to the plant (five-point scale) [1]: 5 (5=80-100%)
ECHCG POST percentage damage caused to the plant (five-point scale) [2]: 5 (5=80-100%)
ECHCG PRE percentage damage caused to the plant (five-point scale) [2]: 4 (4=60-79%)
SETFA POST percentage damage caused to the plant (five-point scale) [3]: 5 (5=80-100%)
SETFA PRE percentage damage caused to the plant (five-point scale) [3]: 5 (5=80-100%)
LOLPE POST percentage damage caused to the plant (five-point scale) [4]: 5 (5=80-100%)
LOLPE PRE percentage damage caused to the plant (five-point scale) [4]: 5 (5=80-100%)
ALOMY POST percentage damage caused to the plant (five-point scale) [5]: 5 (5=80-100%)
ALOMY PRE percentage damage caused to the plant (five-point scale) [5]: 5 (5=80-100%)

Cc1cc(-c2ccc(C#N)cn2)cc(Cl)c1C1C(=O)CC2(CCN(C(=O)C3CC3)CC2)CC1=O [Compound A57]
AVEFA POST percentage damage caused to the plant (five-point scale) [1]: 5 (5=80-100%)
AVEFA PRE percentage damage caused to the plant (five-point scale) [1]: 5 (5=80-100%)
ECHCG POST percentage damage caused to the plant (five-point scale) [2]: 5 (5=80-100%)
ECHCG PRE percentage damage caused to the plant (five-point scale) [2]: 5 (5=80-100%)
SETFA POST percentage damage caused to the plant (five-point scale) [3]: 5 (5=80-100%)
SETFA PRE percentage damage caused to the plant (five-point scale) [3]: 5 (5=80-100%)
LOLPE POST percentage damage caused to the plant (five-point scale) [4]: 5 (5=80-100%)
LOLPE PRE percentage damage caused to the plant (five-point scale) [4]: 5 (5=80-100%)
ALOMY POST percentage damage caused to the plant (five-point scale) [5]: 5 (5=80-100%)
ALOMY PRE percentage damage caused to the plant (five-point scale) [5]: 5 (5=80-100%)

CC#Cc1cc(Cl)c(C2C(=O)CC3(CCN(C(=O)c4ccccc4)CC3)CC2=O)c(OC)c1 [Compound A3, 3-benzoyl-9-(2-chloro-6-methoxy-4-prop-1-ynyl-phenyl)-3-azaspiro[5.5]undecane-8,10-dione]
AVEFA POST percentage damage caused to the plant (five-point scale) [1]: 5 (5=80-100%)
AVEFA PRE percentage damage caused to the plant (five-point scale) [1]: 5 (5=80-100%)
ECHCG POST percentage damage caused to the plant (five-point scale) [2]: 5 (5=80-100%)
ECHCG PRE percentage damage caused to the plant (five-point scale) [2]: 5 (5=80-100%)
SETFA POST percentage damage caused to the plant (five-point scale) [3]: 5 (5=80-100%)
SETFA PRE percentage damage caused to the plant (five-point scale) [3]: 5 (5=80-100%)
LOLPE POST percentage damage caused to the plant (five-point scale) [4]: 5 (5=80-100%)
LOLPE PRE percentage damage caused to the plant (five-point scale) [4]: 5 (5=80-100%)
ALOMY POST percentage damage caused to the plant (five-point scale) [5]: 5 (5=80-100%)
ALOMY PRE percentage damage caused to the plant (five-point scale) [5]: 5 (5=80-100%)

CC#Cc1cc(Cl)c(C2C(=O)CC3(CCN(C(=O)NC(=O)c4ccccn4)CC3)CC2=O)c(OC)c1 [Compound A11]
AVEFA POST percentage damage caused to the plant (five-point scale) [1]: 5 (5=80-100%)
AVEFA PRE percentage damage caused to the plant (five-point scale) [1]: 3 (3=40-59%)
ECHCG POST percentage damage caused to the plant (five-point scale) [2]: 5 (5=80-100%)
ECHCG PRE percentage damage caused to the plant (five-point scale) [2]: 5 (5=80-100%)
SETFA POST percentage damage caused to the plant (five-point scale) [3]: 5 (5=80-100%)
SETFA PRE percentage damage caused to the plant (five-point scale) [3]: 5 (5=80-100%)
LOLPE POST percentage damage caused to the plant (five-point scale) [4]: 5 (5=80-100%)
LOLPE PRE percentage damage caused to the plant (five-point scale) [4]: 5 (5=80-100%)
ALOMY POST percentage damage caused to the plant (five-point scale) [5]: 5 (5=80-100%)
ALOMY PRE percentage damage caused to the plant (five-point scale) [5]: 5 (5=80-100%)

COc1cc(-c2ccc(C#N)cn2)cc(Cl)c1C1C(=O)CC2(CCN(C(C)=O)CC2)CC1=O [Compound A13]
AVEFA POST percentage damage caused to the plant (five-point scale) [1]: 5 (5=80-100%)
AVEFA PRE percentage damage caused to the plant (five-point scale) [1]: 2 (2=20-39%)
ECHCG POST percentage damage caused to the plant (five-point scale) [2]: 5 (5=80-100%)
ECHCG PRE percentage damage caused to the plant (five-point scale) [2]: 5 (5=80-100%)
SETFA POST percentage damage caused to the plant (five-point scale) [3]: 5 (5=80-100%)
SETFA PRE percentage damage caused to the plant (five-point scale) [3]: 2 (2=20-39%)
LOLPE POST percentage damage caused to the plant (five-point scale) [4]: 5 (5=80-100%)
LOLPE PRE percentage damage caused to the plant (five-point scale) [4]: 1 (1=0-19%)
ALOMY POST percentage damage caused to the plant (five-point scale) [5]: 5 (5=80-100%)
ALOMY PRE percentage damage caused to the plant (five-point scale) [5]: 3 (3=40-59%)

CC#Cc1cc(Cl)c(C2C(=O)CC3(CCN(C(=O)CC#N)CC3)CC2=O)c(Cl)c1 [Compound A15]
AVEFA POST percentage damage caused to the plant (five-point scale) [1]: 5 (5=80-100%)
AVEFA PRE percentage damage caused to the plant (five-point scale) [1]: 5 (5=80-100%)
ECHCG POST percentage damage caused to the plant (five-point scale) [2]: 5 (5=80-100%)
ECHCG PRE percentage damage caused to the plant (five-point scale) [2]: 5 (5=80-100%)
SETFA POST percentage damage caused to the plant (five-point scale) [3]: 5 (5=80-100%)
SETFA PRE percentage damage caused to the plant (five-point scale) [3]: 5 (5=80-100%)
LOLPE POST percentage damage caused to the plant (five-point scale) [4]: 5 (5=80-100%)
LOLPE PRE percentage damage caused to the plant (five-point scale) [4]: 5 (5=80-100%)
ALOMY POST percentage damage caused to the plant (five-point scale) [5]: 5 (5=80-100%)
ALOMY PRE percentage damage caused to the plant (five-point scale) [5]: 5 (5=80-100%)

CC#Cc1cc(Cl)c(C2C(=O)CC3(CCN(C(C)=O)CC3)CC2=O)c(OC)c1 [Compound A1]
AVEFA POST percentage damage caused to the plant (five-point scale) [1]: 5 (5=80-100%)
AVEFA PRE percentage damage caused to the plant (five-point scale) [1]: 5 (5=80-100%)
ECHCG POST percentage damage caused to the plant (five-point scale) [2]: 5 (5=80-100%)
ECHCG PRE percentage damage caused to the plant (five-point scale) [2]: 5 (5=80-100%)
SETFA POST percentage damage caused to the plant (five-point scale) [3]: 5 (5=80-100%)
SETFA PRE percentage damage caused to the plant (five-point scale) [3]: 5 (5=80-100%)
LOLPE POST percentage damage caused to the plant (five-point scale) [4]: 5 (5=80-100%)
LOLPE PRE percentage damage caused to the plant (five-point scale) [4]: 5 (5=80-100%)
